# Like-named read-outs stand apart in the source and are kept apart here.
# Key:
# [1] = tested on: MDA-MB-231 cells; assay: BrdU labeling (cell proliferation) in MDA-MB-231 cells; type: cell-based, human; details: 5-FU 0.15 ug/ml alone or MPA 0.19 uM alone
# Procedure: Primary antibodies used for immunofluorescence included rabbit anti-NS (Ab138, Cocalico), rat anti-BrdU (BU1/75, Accurate), and mouse anti-fibrillarin (38F3, EnCor) antibodies. To measure cell proliferation, cultures were treated with bromodeoxyuridine (BrdU, Accurate, OBT0030) 1 hour before harvest.
# [2] = tested on: pre-rRNA transcripts; assay: Real-time RT-PCR of pre-rRNA transcripts; type: cell-based
# Procedure: The AC(t) values between the target message and two reference messages (HMG-14 and […]) were determined using the MyiQ single-color real-time PCR detection system and supermix SYBR green reagent. The AAC(t) values were measured from two biological replicates and two technical repeats (n=4). Primer sequences are: SJ1, 5′-[…]-3′ and 5′-[…]-3′; SJ2, 5′-[…]-3′ and 5′-[…]-3′; SJ3, 5′-[…]-3′ and 5′-[…]-3′; and 18S, 5′-[…]-3′ and 5′-[…]-3′.
# The anti-tumor activity of MPA has been linked to nucleolar stress. To investigate whether the synergy of MPA on 5-FU is related to nucleolar stress, Applicants tested the anti-tumor effect of 5-FU in combination with two inhibitors (actinomycin D [AMD] and ADR). Both drugs trigger nucleolar disassembly, but differ in that low-dose AMD (0.05 ug/ml) inhibits the activity of RNA polymerase-I, whereas ADR (2 uM) inhibits the activity of RNA polymerase-II. […] To determine how 5-FU and MPA affect the synthesis or processing of pre-rRNAs, Applicants used real-time RT-PCR to measure the amounts of rRNA transcripts with the splice junction-1 (SJ-1), SJ-2, SJ-3, and 18S rRNA sequences (FIG. 3B). […] By contrast, 5-FU alone increases 47S pre-rRNA and decreases the amount of SJ-3-containing transcripts.
# [3] = tested on: nucleostemin; assay: Nucleostemin protein level in MDA-MB-231 cells; type: cell-based, human
# Source text: To test the idea that nucleostemin may be involved in mediating the synergy between MPA and 5-FU, Applicants first confirmed that MPA treatment decreases the protein level of endogenous nucleostemin but not that of GNL3L and Ngp-1, the two nucleostemin homologues in vertebrate (FIG. 4A). […] Applicants noted that cells in the three control groups appear to be more resistant to the 5-FU/MPA-combined treatment than to the parental MDA-MB-231 cells, which may be caused by the G418/puromycin drug selection process.
# [4] = tested on: dysplastic oral keratinocyte (DOK) cells; assay: Growth inhibition (IC50) and combination index in dysplastic oral keratinocyte cells; type: cell-based; details: single agent, read-out: IC50 concentration
# Procedure: Cells were plated in 96-well plates for one day and received drug treatments for 3 days. The plating cell densities were 2,000 cells/well for human cancer cell lines, 3,000 cells/well for tumor sphere cells, and 10,000 cells/well for primary tumor cells. Following the addition of MTT solutions (10 μl, 5 mg/ml), cells were incubated for 4 hours to allow MTT to be metabolized to formazan. Formazan was then dissolved in DMSO and measured by spectrophotometer at 560 nm.
# The tumor growth-inhibitory curves of individual drugs were first measured by the MTT assay over a range of five concentrations with three-fold increment. The half-inhibitory concentrations (IC50) were calculated by Calcusyn program (Biosoft, Ferguson, Mo.). The combined effects were measured by mixing two drugs at the 4:1, 2:1, 1:1, 1:2, or 1:4 ratio of their respective IC50 concentrations. Each combination was tested for its tumor growth-inhibitory effect over a range of five different dosages, and calculated for its CI using the Calcusyn program.
Compound,proliferative rate (BrdU labeling) [1],"amount of pre-rRNA transcripts (SJ-1, SJ-2, SJ-3, 18S), including 47S pre-rRNA [2]",protein level of endogenous nucleostemin [3],IC50 ([4]; Keratinocyte),IC50 [4],47S pre-rRNA [2],amount of SJ-3-containing transcripts [2]
"COc1c(C)c2c(c(O)c1C/C=C(\C)CCC(=O)O)C(=O)OC2 [MPA, mycophenolic acid]",does not decrease,decrease the amount of pre-rRNA transcripts,decreases,6670 nM,–,–,–
CC(=O)O[C@H]1C(=O)[C@@]2(C)[C@H]([C@H](OC(=O)c3ccccc3)[C@]3(O)C[C@H](OC(=O)[C@H](O)[C@@H](NC(=O)c4ccccc4)c4ccccc4)C(C)=C1C3(C)C)[C@]1(OC(C)=O)CO[C@@H]1C[C@@H]2O [paclitaxel],–,–,–,210 nM,–,–,–
O=C1[O][Pt]2([NH][C@@H]3CCCC[C@H]3[NH]2)[O]C1=O [oxaliplatin],–,–,–,–,830 nM,–,–
"O=c1[nH]cc(F)c(=O)[nH]1 [5-FU, 5-fluorouracil]",does not decrease,–,–,1.67 µg/mL,–,increases,decreases

# — patent US9492426B2, “Mycophenolic acid analogues as anti-tumor chemosensitizing agents” (Texas A & M University System, priority 2011, dated 2016)
